What was measured:
TNF-α = assay: Cell-based TNF-α inhibition assay (LPS-induced PBMCs, Meso Scale); conditions: PBMC, PBMCs pretreated 1 h, LPS 100 ng/mL 18-24 h, percentage of stimulated DMSO control; for inhibition at 0.1 µM: compound concentration 0.1 μM; for inhibition at 1 µM: compound concentration 1 μM
Summary of the method: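 Thawed primary PBMCs (200,000 cells/well, RPMI 1640 with 10% FBS) were pretreated with compound for 1 h, then stimulated with 100 ng/mL LPS for 18–24 h. Supernatant TNF-α was measured by Meso Scale, and activity was expressed as percent inhibition relative to the stimulated DMSO control.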

PDE4B = target: T1, PDE4B (Homo sapiens, UniProt Q07343); assay: Protein degradation assay, western blot, PDE4B in A549 cells; format: cell-based; conditions: 24 h treatment, 'as high as about' = upper value for the group, read-out: PDE4B degradation relative to DMSO
T1 construct: endogenous in cells; host or cells: A549
Procedure: Example B2. Protein Degradation Assay
A549 cells were grown in RPMI 1640 media supplemented with 10% fetal bovine serum, streptomycin, and penicillin. The cells were plated in 6-well plates at 300,000 cells/well in the growth media. After overnight incubation, the cells were treated with DMSO (control) or a compound at predetermined concentrations (e.g., 10 nM, 100 nM, 1 μM, 3 μM, or 10 μM) for 24 h at 37° C. under 5% CO2. Whole cell extracts were prepared using an immunoprecipitation (IP) lysis buffer. The cells were washed once in PBS, and the cell pellets were resuspended in the IP lysis buffer and incubated for 15 min on ice. Cells debris was removed by centrifugation and the cleared whole cell lysates were transferred to new tubes for further analysis.
For a western blot analysis, the whole cell protein extracts were separated on 4-12% SDS-polyacrylamide gels, transferred to nitrocellulose, and probed with primary antibodies. Membranes were subsequently washed and probed with IRDYE® secondary antibodies. The signals were detected using an ODYSSEY® Imaging System. The antibodies used in the assay included anti-PDE4B antibody; anti-PDE4D antibodies (top, bottom, and short isoform); β-actin mouse monoclonal antibody; IRDYE® 680RD goat anti-rabbit antibody; and IRDYE® 800CW goat anti-mouse antibody. The compounds provided herein are PDE4 protein degraders.

T1 sequence (Q07343 whole entry): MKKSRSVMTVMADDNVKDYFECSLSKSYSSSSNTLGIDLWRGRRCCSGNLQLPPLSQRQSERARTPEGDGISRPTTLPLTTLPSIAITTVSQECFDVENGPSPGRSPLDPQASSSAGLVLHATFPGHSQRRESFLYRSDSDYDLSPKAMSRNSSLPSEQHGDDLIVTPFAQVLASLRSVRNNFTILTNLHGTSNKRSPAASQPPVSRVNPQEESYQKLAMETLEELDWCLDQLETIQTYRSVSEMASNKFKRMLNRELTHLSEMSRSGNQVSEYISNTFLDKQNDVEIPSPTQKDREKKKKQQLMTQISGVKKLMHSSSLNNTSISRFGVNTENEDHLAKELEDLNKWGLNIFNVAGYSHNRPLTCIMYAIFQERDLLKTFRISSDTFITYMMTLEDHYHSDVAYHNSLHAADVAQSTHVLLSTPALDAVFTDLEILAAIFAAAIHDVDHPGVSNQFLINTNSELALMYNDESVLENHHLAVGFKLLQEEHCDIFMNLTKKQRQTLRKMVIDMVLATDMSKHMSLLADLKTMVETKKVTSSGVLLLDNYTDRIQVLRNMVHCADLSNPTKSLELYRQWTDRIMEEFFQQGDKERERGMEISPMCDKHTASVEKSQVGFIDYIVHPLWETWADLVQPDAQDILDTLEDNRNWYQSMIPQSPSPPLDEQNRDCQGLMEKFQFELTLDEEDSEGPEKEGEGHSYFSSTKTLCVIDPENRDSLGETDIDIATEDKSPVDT

Dmax (PDE4B) [%]	SMILES	inhibition at 0.1 µM (TNF-α) [%]	inhibition at 1 µM (TNF-α) [%]
≤ 70	CCOc1cc([C@@H](CS(C)(=O)=O)N2C(=O)c3cccc(NCCCCCCCCCNCc4ccc(OCc5scc6c5CN(C5CCC(=O)NC5=O)C6=O)cc4)c3C2=O)ccc1OC (stereo partly drawn) [Compound A44, 4-[(9-{[(4-{[5-(2,6-Dioxopiperidin-3-yl)-4-oxo-4H,5H,6H-thieno[3,4-c]pyrrol-1-yl]methoxy}phenyl)methyl]amino}nonyl)amino]-2-[(1S)-1-(3-ethoxy-4-methoxyphenyl)-2-methanesulfonylethyl]-2,3-dihydro-1H-isoindole-1,3-dione]	≥ 60	≥ 60
≤ 70	CCOc1cc([C@@H](CS(C)(=O)=O)N2C(=O)c3cccc(NC(=O)CCCCCCCCN4CCC(C#Cc5cc6c(cc5F)C(=O)N(C5CCC(=O)NC5=O)C6)CC4)c3C2=O)ccc1OC (stereo partly drawn) [Compound A20, 9-(4-{2-[2-(2,6-Dioxopiperidin-3-yl)-6-fluoro-1-oxo-2,3-dihydro-1H-isoindol-5-yl]ethynyl}piperidin-1-yl)-N-{2-[(1S)-1-(3-ethoxy-4-methoxyphenyl)-2-methanesulfonylethyl]-1,3-dioxo-2,3-dihydro-1H-isoindol-4-yl}nonanamide]	≥ 60	≥ 60
≤ 70	CCOc1cc([C@@H](CS(C)(=O)=O)N2C(=O)c3cccc(NC(=O)CCCCCCCCC4CCN(c5cccc6c5C(=O)N(C5CCC(=O)NC5=O)C6=O)CC4)c3C2=O)ccc1OC (stereo partly drawn) [Compound A15, 9-{1-[2-(2,6-Dioxopiperidin-3-yl)-1,3-dioxo-2,3-dihydro-1H-isoindol-4-yl]piperidin-4-yl}-N-{2-[(1S)-1-(3-ethoxy-4-methoxyphenyl)-2-methanesulfonylethyl]-1,3-dioxo-2,3-dihydro-1H-isoindol-4-yl}nonanamide]	40 to 60	≥ 60
≤ 70	O=C1CCC(N2Cc3c(NCCCOCCOCCOCCOc4ccc(C(=O)Nc5c(Cl)cncc5Cl)cc4OCC4CC4)cccc3C2=O)C(=O)N1 (centres unmarked) [Compound B9, 3-(Cyclopropylmethoxy)-N-(3,5-dichloropyridin-4-yl)-4-(2-(2-(2-(3-((2-(2,6-dioxopiperidin-3-yl)-1-oxoisoindolin-4-yl)amino)propoxy)ethoxy)ethoxy)ethoxy)benzamide]	≥ 60	≥ 60
≤ 70	O=C1CCC(N2Cc3c(cc(F)cc3C3CCN(CCCCCCCOc4ccc(C(=O)Nc5c(Cl)cncc5Cl)cc4OCC4CC4)CC3)C2=O)C(=O)N1 (centres unmarked) [Compound B10, 3-(Cyclopropylmethoxy)-N-(3,5-dichloropyridin-4-yl)-4-((7-(4-(2-(2,6-dioxopiperidin-3-yl)-6-fluoro-1-oxoisoindolin-4-yl)piperidin-1-yl)heptyl)oxy)benzamide]	20 to 40	≥ 60
≤ 70	CCOc1cc([C@@H](CS(C)(=O)=O)N2C(=O)c3cccc(NC(=O)CCOCCOCCNCc4ccc(OCc5scc6c5CN(C5CCC(=O)NC5=O)C6=O)cc4)c3C2=O)ccc1OC (stereo partly drawn) [Compound A41, 3-[2-(2-{[(4-{[5-(2,6-Dioxopiperidin-3-yl)-4-oxo-4H,5H,6H-thieno[3,4-c]pyrrol-1-yl]methoxy}phenyl)methyl]amino}ethoxy)ethoxy]-N-{2-[(1S)-1-(3-ethoxy-4-methoxyphenyl)-2-methanesulfonylethyl]-1,3-dioxo-2,3-dihydro-1H-isoindol-4-yl}propanamide]	40 to 60	≥ 60
≤ 70	CCOc1cc([C@@H](CS(C)(=O)=O)N2C(=O)c3cccc(NC(=O)CCOCCOCCOCCNc4cccc5c4C(=O)N(C4CCC(=O)NC4=O)C5=O)c3C2=O)ccc1OC (stereo partly drawn) [Compound A10, 3-(2-(2-(2-((2-(2,6-Dioxopiperidin-3-yl)-1,3-dioxoisoindolin-4-yl)amino)ethoxy)-ethoxy)ethoxy)-N-(2-((S)-1-(3-ethoxy-4-methoxyphenyl)-2-(methylsulfonyl)ethyl)-1,3-dioxoisoindolin-4-yl)propanamide]	< 20	< 20
≤ 70	O=C1CCC(N2Cc3cc(C4CCN(CCOc5cc(C(=O)Nc6c(Cl)cncc6Cl)ccc5OC(F)F)CC4)c(F)cc3C2=O)C(=O)N1 (centres unmarked) [Compound B15, N-(3,5-Dichloropyridin-4-yl)-4-(difluoromethoxy)-3-(2-{4-[2-(2,6-dioxo-piperidin-3-yl)-6-fluoro-1-oxo-2,3-dihydro-1H-isoindol-5-yl]piperidin-1-yl}ethoxy)benzamide]	≥ 60	≥ 60
≤ 70	CCOc1cc([C@@H](CS(C)(=O)=O)N2C(=O)c3cc(CCCCCCCN4CCC(c5cc(F)cc6c5CN(C5CCC(=O)NC5=O)C6=O)CC4)cc(NC(C)=O)c3C2=O)ccc1OC (stereo partly drawn) [Compound A1, N-(6-(7-(4-(2-(2,6-Dioxopiperidin-3-yl)-6-fluoro-1-oxoisoindolin-4-yl)piperidin-1-yl)heptyl)-2-((S)-1-(3-ethoxy-4-methoxyphenyl)-2-(methylsulfonyl)ethyl)-1,3-dioxoisoindolin-4-yl)acetamide]	≥ 60	
≤ 70	CCOc1cc([C@@H](CS(C)(=O)=O)N2C(=O)c3cccc(NC(=O)CC4CN(Cc5ccc(OCc6scc7c6CN(C6CCC(=O)NC6=O)C7=O)cc5)CCO4)c3C2=O)ccc1OC (stereo partly drawn) [Compound A40, 2-{4-[(4-{[5-(2,6-Dioxopiperidin-3-yl)-4-oxo-4H,5H,6H-thieno[3,4-c]pyrrol-1-yl]methoxy}phenyl)methyl]morpholin-2-yl}-N-{2-[(1S)-1-(3-ethoxy-4-methoxyphenyl)-2-methanesulfonylethyl]-1,3-dioxo-2,3-dihydro-1H-isoindol-4-yl}acetamide]	≥ 60	≥ 60
≤ 70	O=C1CCC(N2C(=O)c3cccc(N4CCC(CCCCCCCOc5cc(C(=O)Nc6c(Cl)cncc6Cl)ccc5OC(F)F)CC4)c3C2=O)C(=O)N1 (centres unmarked) [Compound B14, N-(3,5-Dichloropyridin-4-yl)-4-(difluoromethoxy)-3-((7-(1-(2-(2,6-dioxo-piperidin-3-yl)-1,3-dioxoisoindolin-4-yl)piperidin-4-yl)heptyl)oxy)benzamide]	≥ 60	≥ 60
≤ 70	CCOc1cc([C@@H](CS(C)(=O)=O)N2C(=O)c3cccc(NC(=O)CCOCCOCCNc4cccc5c4C(=O)N(C4CCC(=O)NC4=O)C5=O)c3C2=O)ccc1OC (stereo partly drawn) [Compound A9, 3-(2-(2-((2-(2,6-Dioxopiperidin-3-yl)-1,3-dioxoisoindolin-4-yl)amino)-ethoxy)ethoxy)-N-(2-((S)-1-(3-ethoxy-4-methoxyphenyl)-2-(methylsulfonyl)ethyl)-1,3-dioxoisoindolin-4-yl)propanamide]	≥ 60	≥ 60
≤ 70	CCOc1cc([C@@H](CS(C)(=O)=O)N2C(=O)c3cccc(NC(=O)COCCOCCOCCOCCNc4cccc5c4C(=O)N(C4CCC(=O)NC4=O)C5=O)c3C2=O)ccc1OC (stereo partly drawn) [Compound A4, 14-((2-(2,6-Dioxopiperidin-3-yl)-1,3-dioxoisoindolin-4-yl)amino)-N-(2-((S)-1-(3-ethoxy-4-methoxyphenyl)-2-(methylsulfonyl)ethyl)-1,3-dioxoisoindolin-4-yl)-3,6,9,12-tetraoxatetradecan-1-amide]	≥ 60	
≤ 70	CCOc1cc([C@@H](CS(C)(=O)=O)N2C(=O)c3cccc(NC(=O)CCCc4ccc(CCNCc5ccc(OCc6scc7c6CN(C6CCC(=O)NC6=O)C7=O)cc5)cc4)c3C2=O)ccc1OC (stereo partly drawn) [Compound A42, 4-[4-(2-{[(4-{[5-(2,6-Dioxopiperidin-3-yl)-4-oxo-4H,5H,6H-thieno[3,4-c]pyrrol-1-yl]methoxy}phenyl)methyl]amino}ethyl)phenyl]-N-{2-[(1S)-1-(3-ethoxy-4-methoxyphenyl)-2-methanesulfonylethyl]-1,3-dioxo-2,3-dihydro-1H-isoindol-4-yl}butanamide]	≥ 60	≥ 60
≤ 70	O=C1CCC(N2Cc3c(cc(F)cc3C3CCN(CCCCCCCCCCCCOc4cc(C(=O)Nc5c(Cl)cncc5Cl)ccc4OC(F)F)CC3)C2=O)C(=O)N1 (centres unmarked) [Compound B7, N-(3,5-Dichloropyridin-4-yl)-4-(difluoromethoxy)-3-((12-(4-(2-(2,6-dioxo-piperidin-3-yl)-6-fluoro-1-oxoisoindolin-4-yl)piperidin-1-yl)dodecyl)oxy)benzamide]		

SMILES	Dmax (PDE4B) [%]	inhibition at 0.1 µM (TNF-α) [%]	inhibition at 1 µM (TNF-α) [%]
O=C1CCC(Nc2cccc(NC(=O)CN3CCN(CCCCOc4cc(C(=O)Nc5c(Cl)cncc5Cl)ccc4OC(F)F)CC3)c2)C(=O)N1 (centres unmarked) [Compound B25, N-(3,5-Dichloropyridin-4-yl)-4-(difluoromethoxy)-3-(4-(4-(2-((3-((2,6-dioxopiperidin-3-yl)amino)phenyl)amino)-2-oxoethyl)piperazin-1-yl)butoxy)benzamide]	≤ 70	≥ 60	≥ 60
